Data: patent US10029984B2, “Mono- or di-substituted indole derivatives as dengue viral replication inhibitors” (Janssen Pharmaceuticals, Inc., priority 2015, dated 2018)

Legend:
DENV-2 16681 strain = test: DENV-2 antiviral assay (eGFP-labeled virus in Vero cells); format: cell-based, Dengue virus; settings: DENV-2 16681 eGFP, MOI 0.5, 3 days
Experimental: The antiviral activity of all the compounds of the invention was tested against DENV-2 16681 strain which was labeled with enhanced green fluorescent protein (eGPF; Table 1). The culture medium consists of minimal essential medium supplemented with 2% of heat-inactivated fetal calf serum, 0.04% gentamycin (50 mg/mL) and 2 mM of L-glutamine. Vero cells, obtained from ECACC, were suspended in culture medium and 25 μL was added to 384-well plates (2500 cells/well), which already contain the antiviral compounds. Typically, these plates contain a 4-fold serial dilution of 9 dilution steps of the test compound at 200 times the final concentration in 100% DMSO (200 nL). In addition, each compound concentration is tested in quadruplicate (final concentration range: 25 μM-0.00038 μM). Finally, each plate contains wells which are assigned as virus controls (containing cells and virus in the absence of compound), cell controls (containing cells in the absence of virus and compound) and medium controls (containing medium in the absence of cells, virus and compounds). To the wells assigned as medium control, 25 μL of culture medium was added instead of Vero cells. Once the cells were added to the plates, the plates were incubated for 30 minutes at room temperature to allow the cells to distribute evenly within the wells. Next, the plates were incubated in a fully humidified incubator (37° C., 5% CO2) until the next day. Then, DENV-2 strain 16681, labeled with eGFP, was added at a multiplicity of infection (MOI) of 0.5. Therefore, 15 μL of virus suspension was added to all the wells containing test compound and to the wells assigned as virus control. In parallel, 15 μL of culture medium was added to the medium and cell controls. Next, the plates were incubated for 3 days in a fully humidified incubator (37° C., 5% CO2). At the day of the read out, the eGFP fluorescence was measured using an automated fluorescence microscope at 488 nm (blue laser). Using an in-house LIMS system, inhibition dose response curves for each compound were calculated and the half maximal effective concentration (EC50) was determined. Therefore, the percent inhibition (I) for every test concentration is calculated using the following formula: I=100*(ST−SCC)/(SVC−SCC); ST, SCC and SVC are the amount of eGFP signal in the test compound, cell control and virus control wells, respectively. The EC50 represents the concentration of a compound at which the virus replication is inhibited with 50%, as measured by a 50% reduction of the eGFP fluorescent intensity compared to the virus control. The EC50 is calculated using linear interpolation.

Vero cells = test: in vitro; format: cell-based; settings: African green monkey
Experimental: (§1) In parallel, the toxicity of the compounds was assessed on the same plates. Once the read-out for the eGFP signal was done, 10 μL of resazurin, a cell viability stain, was added to all wells of the 384-well plates. The resazurin assay is based on the reduction of the blue resazurin by NADH, produced by the cells, into the highly fluorescent product, resorufin. The formation of pink fluorescent resorufin is directly related to the number of viable cells in the well. The plates were incubated for an additional 5 hours in a fully humidified incubator (37° C., 5% CO2). Next, the plates were measured on an Infinite reader (Tecan) using an excitation wavelength of 530 nm. The half maximal cytotoxic concentration (CC50) was also determined, defined as the concentration required to reduce the resazurin conversion by 50% compared to that of the cell control wells. Finally, the selectivity index (SI) was determined for the compounds, which was calculated as followed: SI=CC50/EC50.

DENV-1 strain TC974#666 = test: Tetravalent RT-qPCR assay Protocol A, serotype 1; format: cell-based; settings: Dengue virus, DENV1, 72 h; RT-qPCR serotype 1 TC974#666, Vero cells, day 3
Experimental: (§2) The antiviral activity of the compounds of the invention was tested against DENV-1 strain TC974#666 (NCPV; Table 6), DENV-2 strain 16681 (Table 7), DENV-3 strain H87 (NCPV; Table 8) and DENV-4 strains H241 (NCPV; Table 9) in a RT-qPCR assay. Therefore, Vero cells were infected with either DENV-1, or -2, or -3, or -4 in the presence or absence of test compounds. At day 3 post-infection, the cells were lysed and cell lysates were used to prepare cDNA of both a viral target (the 3′UTR of DENV; table 2) and a cellular reference gene (β-actin, table 2). Subsequently, a duplex real time PCR was performed on a Lightcycler480 instrument. The generated Cp value is inversely proportional to the amount of RNA expression of these targets. Inhibition of DENV replication by a test compound result in a shift of Cp's for the 3′UTR gene. On the other hand, if a test compound is toxic to the cells, a similar effect on β-actin expression will be observed. The comparative ΔΔCp method is used to calculate EC50, which is based on the relative gene expression of the target gene (3′UTR) normalized with the cellular housekeeping gene (β-actin).
(§3) The culture medium consisted of minimal essential medium supplemented with 2% of heat-inactivated fetal calf serum, 0.04% gentamycin (50 mg/mL) and 2 mM of L-glutamine. Vero cells, obtained from ECACC, were suspended in culture medium and 75 μL/well was added in 96-well plates (10000 cells/well), which already contain the antiviral compounds. Typically, these plates contain a 4-fold serial dilution of 9 dilution steps of the test compound at 200 times the final concentration in 100% DMSO (500 nL; final concentration range: 25 μM-0.00038 μM). In addition, each plate contains wells which are assigned as virus controls (containing cells and virus in the absence of compound) and cell controls (containing cells in the absence of virus and compound). Once the cells were added in the plates, the plates were incubated in a fully humidified incubator (37° C., 5% CO2) until the next day. Then, DENV-1 strain TC974#666 at an MOI of 0.6, DENV-2 strain 16681 at an MOI of 0.01, DENV-3 strain H87 at an MOI of 1.0 and DENV-4 strains H241 at an MOI of 0.2 and SG/06K2270DK1/2005 at an MOI of 0.16, were added. Therefore, 25 μL of virus suspension was added to all the wells containing test compound and to the wells assigned as virus control. In parallel, 25 μL of culture medium was added to the cell controls. Next, the plates were incubated for 3 days in a fully humidified incubator (37° C., 5% CO2). After 3 days, the supernatant was removed from the wells and the cells were washed twice with ice-cold PBS (˜100 μL). The cell pellets within the 96-well plates were stored at −80° C. for at least 1 day. Next, RNA was extracted using the Cells-to-CT™ lysis kit, according to the manufacture's guideline (Applied Biosystems). The cell lysates can be stored at −80° C. or immediately used in the reverse transcription step.
(§4) In preparation of the reverse transcription step, mix A (table 3A) was prepared and 7.57 μL/well was dispensed in a 96-well plate. After addition of 5 μL of the cell lysates, a five minute denaturation step at 75° C. was performed (table 3B). Afterwards, 7.43 μL of mix B was added (table 3C) and the reverse transcription step was initiated (table 3D) to generate cDNA.
(§5) Finally, a RT-qPCR mix was prepared, mix C (table 4A), dispensed in 96-well LightCycler qPCR plates to which 3 μL of cDNA was added and the qPCR was performed according to the conditions in table 4B on a LightCycler 480. Using the LightCycler software and an in-house LIMS system, dose response curves for each compound were calculated and the half maximal effective concentration (EC50) and the half maximal cytotoxic concentration (CC50) were determined.

DENV-2 strain 16681 = test: Tetravalent RT-qPCR assay Protocol A, serotype 2; format: cell-based; settings: Dengue virus, DENV2, 72 h; RT-qPCR serotype 2 16681, Vero cells, day 3
Experimental: as §2, §3, §4, §5

DENV-3 strain H87 = test: Tetravalent RT-qPCR assay Protocol A, serotype 3; format: cell-based; settings: Dengue virus, DENV3, 72 h; RT-qPCR serotype 3 H87, Vero cells, day 3
Experimental: as §2, §3, §4, §5

DENV-4 strains H241 = test: Tetravalent RT-qPCR assay Protocol A, serotype 4; format: cell-based; settings: Dengue virus, DENV4, 72 h; RT-qPCR serotype 4 H241, Vero cells, day 3
Experimental: as §2, §3, §4, §5

in vitro [1] = format: cell-based; settings: African green monkey, CC50
Experimental: as §2, §3, §5

in vitro [2] = format: cell-based; settings: African green monkey, CC50; remark: listed apart in the source
Experimental: as §1

| SMILES | EC50 (DENV-2 16681 strain; listed as 1A*) [nM] | CC50 (Vero cells) [nM] | EC50 (DENV-1 strain TC974#666) [nM] | EC50 (DENV-2 strain 16681) [nM] | EC50 (DENV-3 strain H87) [nM] | EC50 (DENV-4 strains H241) [nM] | CC50 at 3 days (in vitro [1]) [nM] | EC50 (DENV-2 16681 strain; listed as 3A*) [nM] | EC50 (DENV-2 16681 strain; listed as 4A*) [nM] | EC50 (DENV-2 16681 strain; listed as 5B*) [nM] | EC50 (DENV-2 16681 strain; listed as 6A*) [nM] | EC50 (DENV-2 16681 strain; listed as 7A*) [nM] | EC50 (DENV-2 16681 strain; listed as 8A*) [nM] | EC50 (DENV-2 16681 strain; listed as 12A*) [nM] | CC50 (in vitro [2]) [nM] |
| --- | --- | --- | --- | --- | --- | --- | --- | --- | --- | --- | --- | --- | --- | --- | --- |
| COc1cc(NC(C(=O)c2c[nH]c3cc(F)ccc23)c2ccc(F)cc2OC)cc(S(C)(=O)=O)c1 (single isomer, unassigned) [Enantiomer 1A, 1-(6-fluoro-1H-indol-3-yl)-2-(4-fluoro-2-methoxyphenyl)-2-((3-methoxy-5-(methylsulfonyl)phenyl)amino)ethanone] | 0.88 | 5900 | 5.18 | 0.83 | 49.6 | 165 | 3520 |  |  |  |  |  |  |  |  |
| COc1cc(NC(C(=O)c2c[nH]c3c(C)c(Cl)ccc23)c2ccc(F)cc2OC)cc(S(C)(=O)=O)c1 (single isomer, unassigned) [Enantiomer 3A, 1-(6-chloro-7-methyl-1H-indol-3-yl)-2-(4-fluoro-2-methoxyphenyl)-2-((3-methoxy-5-(methylsulfonyl)phenyl)amino)ethanone] |  | 4800 | 7.18 | 0.285 | 58.6 | 121 | 3910 | 0.3 |  |  |  |  |  |  |  |
| COc1cc(NC(C(=O)c2c[nH]c3cc(Cl)ccc23)c2ccc(F)cc2OC)cc(S(C)(=O)=O)c1 (single isomer, unassigned) [Enantiomer 4A, 1-(6-chloro-1H-indol-3-yl)-2-(4-fluoro-2-methoxyphenyl)-2-((3-methoxy-5-(methylsulfonyl)phenyl)amino)ethanone] |  | 4400 | 4.22 | 0.377 | 55.3 | 131 | 3590 |  | 0.5 |  |  |  |  |  |  |
| COc1cc(NC(C(=O)c2c[nH]c3cc(OC)ccc23)c2ccc(F)cc2OC)cc(S(C)(=O)=O)c1 (single isomer, unassigned) [Enantiomer 5B, 2-(4-fluoro-2-methoxyphenyl)-1-(6-methoxy-1H-indol-3-yl)-2-((3-methoxy-5-(methylsulfonyl)phenyl)amino)ethanone] |  | > 13000 | 8.89 | 1.23 | 100 | 186 |  |  |  | 1 |  |  |  |  |  |
| COc1cc(NC(C(=O)c2c[nH]c3c(F)cc(C)cc23)c2ccc(F)cc2OC)cc(S(C)(=O)=O)c1 (single isomer, unassigned) [Enantiomer 6A, 2-(4-fluoro-2-methoxyphenyl)-1-(7-fluoro-5-methyl-1H-indol-3-yl)-2-((3-methoxy-5-(methylsulfonyl)phenyl)amino)ethanone] |  | 5000 | 9.7 | 3.48 | 123 | 239 | 4610 |  |  |  | 2.7 |  |  |  |  |
| COc1cc(NC(C(=O)c2c[nH]c3cc(F)c(F)cc23)c2ccc(F)cc2OC)cc(S(C)(=O)=O)c1 (single isomer, unassigned) [Enantiomer 7A, 1-(5,6-difluoro-1H-indol-3-yl)-2-(4-fluoro-2-methoxyphenyl)-2-((3-methoxy-5-(methylsulfonyl)phenyl)amino)ethanone] |  | 4400 | 3.7 | 0.525 | 61.6 | 142 | 3870 |  |  |  |  | 0.76 |  |  |  |
| COc1cc(NC(C(=O)c2c[nH]c3c(C)cc(F)cc23)c2ccc(F)cc2OC)cc(S(C)(=O)=O)c1 (single isomer, unassigned) [Enantiomer 8A, 2-(4-fluoro-2-methoxyphenyl)-1-(5-fluoro-7-methyl-1H-indol-3-yl)-2-((3-methoxy-5-(methylsulfonyl)phenyl)amino)ethanone] |  | 5100 | 6.83 | 1.27 | 82.1 | 248 | 4400 |  |  |  |  |  | 1 |  |  |
| COc1cc(NC(C(=O)c2c[nH]c3c(Cl)c(OC)ccc23)c2ccc(F)cc2OC)cc(S(C)(=O)=O)c1 (single isomer, unassigned) [Enantiomer 12A, 1-(7-chloro-6-methoxy-1H-indol-3-yl)-2-(4-fluoro-2-methoxyphenyl)-2-((3-methoxy-5-(methylsulfonyl)phenyl)amino)ethanone] |  |  | 14 | 0.25 | 73.8 | 261 |  |  |  |  |  |  |  | 0.42 | > 25000 |
